Here are results for six molecules from paper PMC7450057, “Enhancing intracellular accumulation and target engagement of PROTACs with reversible covalent chemistry” (Nature Communications, 2020).

“And” between values parts separate entries of the source, which are not always exact repeats. Equal values may be shown once. Bounds are passed on as bounds.

In one data set the test system is MOLM-14 cells. Kind of data set: AlamarBlue cell viability assay, MOLM-14. The following applies: for Cell viability, MOML-14: Supplementary Figure 7, replicates; for MOLM-14 Cell Viability%: Figure 2f, 5 replicates. (Resazurin is reduced to fluorescent resorufin, in cell work by metabolically active cells.)
Another data set concerns the target BTK (Homo sapiens, UniProt Q06187). Kind of data set: BTK degradation in MOLM-14 cells (western blot). It is filed as cell-based. On the set-up: endogenous in cells; host or cells: MOLM-14. The following applies: MOLM-14 cells, 200 nM, 24 h incubation. (In western blotting, separated proteins are transferred to a membrane and probed.)
A further data set has as its system Mino cells. As to the kind of experiment: AlamarBlue cell viability assay, Mino. It is filed as cell-based. The following applies: for Mino Cell Viability%: Figure 2f, 5 replicates.
A further data set deals with T1, BTK-NanoLuc fusion (Homo sapiens, UniProt Q06187).
T1 construct: host or cells: HEK 293T/17
T1 sequence (Q06187 whole entry, the tested form may be a part): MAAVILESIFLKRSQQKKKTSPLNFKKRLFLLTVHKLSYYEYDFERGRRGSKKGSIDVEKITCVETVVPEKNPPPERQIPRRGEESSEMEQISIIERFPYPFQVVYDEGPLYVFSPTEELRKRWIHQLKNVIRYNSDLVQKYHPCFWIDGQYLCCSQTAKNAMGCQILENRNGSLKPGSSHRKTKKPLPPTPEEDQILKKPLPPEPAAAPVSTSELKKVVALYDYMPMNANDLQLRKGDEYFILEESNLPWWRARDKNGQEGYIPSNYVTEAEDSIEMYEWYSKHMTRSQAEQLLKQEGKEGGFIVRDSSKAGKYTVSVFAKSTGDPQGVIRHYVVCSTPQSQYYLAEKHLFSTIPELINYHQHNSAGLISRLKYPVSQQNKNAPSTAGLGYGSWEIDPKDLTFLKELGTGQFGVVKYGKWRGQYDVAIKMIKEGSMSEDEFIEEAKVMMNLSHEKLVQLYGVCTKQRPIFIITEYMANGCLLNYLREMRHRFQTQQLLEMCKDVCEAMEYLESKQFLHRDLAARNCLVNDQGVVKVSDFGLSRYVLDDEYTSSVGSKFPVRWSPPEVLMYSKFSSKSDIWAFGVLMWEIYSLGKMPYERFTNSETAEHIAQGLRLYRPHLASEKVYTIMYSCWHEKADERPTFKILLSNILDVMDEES
Kind of data set: NanoBRET BTK in-cell target engagement assay. It is filed as cell-based. The following applies: Figure 3d, triplicates. The protocol:
The target engagement assay for BTK or CRBN was from Promega (BTK kit, Cat. No. N2500; CRBN kit, Cat. No. CS1810C136) and was performed according to the manufacture’s instruction with some modifications. Briefly, HEK 293/T17 cells (ATCC) were transiently transfected with BTK-NanoLuc® fusion vector or NanoLuc®-CRBN fusion vector (Promega) in 0.125 M CaCl2 and 1x HBS. Forty-eight hours after transfection, the cells were resuspended in Opti-MEM medium (Life Technologies, Cat. No. 11058021) at the density of 2 × 10^5 cells per mL and were plated into 96-well plates (Corning, Cat. No. CLS3600). Cells were incubated with 1.0 µM (BTK) or 0.5 µM (CRBN) NanoBRET™ Tracer and serially diluted unlabeled BTK PROTAC compounds (from 10 to 0.0032 µM, 5-fold dilution) for 2 h at 37 °С with 5% CO2 in an incubator. After 2 h incubation, the 3X Nano-Glo® Substrate with NanoLuc® extracellular inhibitor were added to cells and developed for 3 min at room temperature. BRET signals were collected using a BioTek SYNERGY H1 microplate reader equipped with a 450/80-nm BP filter for donor emission and a 610-nm LP filter for acceptor emission. BRET Ratio was calculated with the equation: [(Acceptor sample/Donor sample)–(Acceptor no tracer control/Donor no tracer control)] × 1000. The IC50 of the compound against its BTK or CRBN tracer was calculated using GraphPad Prism software.
(In general: In BRET a luciferase serves as donor, and the signal depends on an acceptor being close.)

Chain of BTK (Q06187 whole entry): as the sequence (Q06187 whole entry, the tested form may be a part) above
Method for Mino cells: The IC50 was calculated using GraphPad Prism software with a four-parameter dose-response curve fit.

For `CN(CCCCNC(=O)CNc1cccc2c1C(=O)N(C1CCC(=O)NC1=O)C2=O)C(C)(C)C=C(C#N)C(=O)N1CCC[C@@H](n2nc(-c3ccc(Oc4ccccc4)cc3)c3c(N)ncnc32)C1` (some centres unmarked) [RC-2], the “Cell viability, MOML-14” value was 1.939 (2×) and 0.9797 and 1.263 and 1.918 in the data set with MOLM-14 cells (drug concentration 1.00E-05 M); 109.825 and 84.2418 and 85.8907 and 118.518 and 93.8319 in the data set on MOLM-14 cells (drug concentration 1.60E-08 M); 9.2521 and 10.1835 and 11.1012 and 14.0541 and 10.0041 with MOLM-14 cells (drug concentration 2.00E-06 M); 91.1619 and 67.352 and 96.5641 and 78.9913 and 73.6029 in the data set on MOLM-14 cells (drug concentration 3.20E-09 M); 67.2416 and 67.0208 and 59.4522 and 60.425 and 58.2103 in the data set on MOLM-14 cells (drug concentration 4.00E-07 M); 98.0682 and 96.9022 and 102.332 and 130.626 and 104.719 with MOLM-14 cells (drug concentration 6.40E-10 M). In the data set with MOLM-14 cells (drug concentration 8.00E-08 M), the “Cell viability, MOML-14” value was 92.8384 and 69.3183 and 103.532 and 88.8644 and 89.4508. The “Degradation at 200 nM (percentage of BTK degradation)” value on BTK is 49%.

As to `CN(CCCNC(=O)COc1cccc2c1C(=O)N(C1CCC(=O)NC1=O)C2=O)C(C)(C)C=C(C#N)C(=O)N1CCC[C@@H](n2nc(-c3ccc(Oc4ccccc4)cc3)c3c(N)ncnc32)C1` (some centres unmarked) [RC-9], the “Cell viability, MOML-14” value in the data set with MOLM-14 cells (drug concentration 1.00E-05 M) was -0.2322 and -0.06633 and -0.1327 and -0.8823 and -0.4179; in the data set on MOLM-14 cells (drug concentration 1.60E-08 M), 85.6517 and 91.2637 and 79.403 and 91.5091 and 93.4859; with MOLM-14 cells (drug concentration 2.00E-06 M), 9.041 and 7.098 and 11.4959 and 8.756 and 8.279; in the data set on MOLM-14 cells (drug concentration 3.20E-09 M), 93.4859 and 94.8192 and 76.9154 and 100.657 and 77.1542; in the data set with MOLM-14 cells (drug concentration 4.00E-07 M), 42.6932 and 44.9353 and 60.7695 and 44.0464 and 46.4279; with MOLM-14 cells (drug concentration 6.40E-10 M) it was 113.612 and 82.5937 and 85.9834 and 109.612 and 104.358. Besides, in the data set on MOLM-14 cells (drug concentration 8.00E-08 M), the “Cell viability, MOML-14” value was 79.6219 and 80.8756 and 76.0199 and 82.7728 and 91.7612. Moreover, the “Degradation at 200 nM (percentage of BTK degradation)” value at BTK is recorded as 30%.

A word on the IC50: it is the concentration that gives 50% inhibition. For `Cc1c(NC(=O)c2ccc(C(C)(C)C)cc2)cccc1-c1cn(C)c(=O)c(Nc2ccc(C(=O)N3CCN(CCCCCCNC(=O)CNc4cccc5c4C(=O)N(C4CCC(=O)NC4=O)C5=O)CC3)cc2)n1` (centres unmarked) [DD-03-171, reference compound], the “Mino Cell Viability%” value with Mino cells (1.00E-06 M) was 32.4788% and 32.2293% and 34.0942% and 35.4207% and 39.7021%; in the data set with Mino cells (1.60E-09 M), 121.168% and 104.266% and 118.227% and 107.943% and 119.96%; with Mino cells (2.00E-07 M), 36.6289% and 34.2124% and 35.7227% and 37.3775% and 42.3025%; in the data set with Mino cells (3.20E-10 M), 132.424% and 103.701% and 122.994% and 107.72% and 141.013%; in the data set with Mino cells (4.00E-08 M), 54.0832% and 46.6234% and 39.8335% and 52.888% and 75.1359%; in the data set with Mino cells (5.00E-06 M) it was 39.9385% and 37.4432% and 38.9273% and 39.4395% and 47.3326%. Moreover, in the data set with Mino cells (8.00E-09 M), the “Mino Cell Viability%” value is 56.5785% and 60.1245% and 102.834% and 110.123% and 118.502%. Further, the IC50 is 0.05 µM in the data set with Mino cells (Mino cells, 72 h, Alamar Blue) and above 10 µM in the data set with MOLM-14 cells (read-out: Cell viability IC50, MOLM-14 cells, 72 h, Alamar Blue). Besides, the “NanoBRET(%)” value at BTK-NanoLuc fusion (1.00E-05 M) was 22.6421% and 28.6973% and 22%; on BTK-NanoLuc fusion (1.60E-08 M) it was 88.8537% and 90.4209% and 91.9881%; on BTK-NanoLuc fusion (2.00E-06 M), 21.3125% and 25.7571% and 22.7507%; at BTK-NanoLuc fusion (3.20E-09 M), 94.8868% and 96.3909% and 104.805%; at BTK-NanoLuc fusion (4.00E-07 M) it was 28.4685% and 42.1101% and 35.114%; at BTK-NanoLuc fusion (8.00E-08 M), 85.0919% and 75.63% and 91.5725%. The “MOLM-14 Cell Viability%” value in the data set on MOLM-14 cells (1.00E-05 M) is 97.5451% and 84.66% and 89.4149% and 67.5953% and 78.1969%; in the data set with MOLM-14 cells (1.60E-08 M), 83.9791% and 92.5848% and 65.981% and 62.9872% and 76.0308%; in the data set with MOLM-14 cells (2.00E-06 M), 93.025% and 80.0636% and 90.2426% and 67.3429% and 78.4493%; in the data set with MOLM-14 cells (3.20E-09 M), 93.7588% and 71.6575% and 86.4445% and 88.7633% and 72.8844%; in the data set on MOLM-14 cells (4.00E-07 M), 97.2809% and 75.3792% and 70.6831% and 69.0687% and 74.7981%; in the data set on MOLM-14 cells (6.40E-10 M), 106.497% and 80.5215% and 63.4862% and 80.6741% and 69.8495%. Besides, the “MOLM-14 Cell Viability%” value in the data set on MOLM-14 cells (8.00E-08 M) is 102.353% and 96.782% and 97.1048% and 76.9172% and 82.8931%.

As for `CN(CCOCCNC(=O)CNc1cccc2c1C(=O)N(C1CCC(=O)NC1=O)C2=O)C(C)(C)C=C(C#N)C(=O)N1CCC[C@@H](n2nc(-c3ccc(Oc4ccccc4)cc3)c3c(N)ncnc32)C1` (some centres unmarked) [RC-3], the “Cell viability, MOML-14” value is 6.131 and 2.152 and 5.745 and 1.563 and 5.644 in the data set with MOLM-14 cells (drug concentration 1.00E-05 M); 83.11 and 86.5611 and 70.0365 and 75.0101 and 88.6317 in the data set on MOLM-14 cells (drug concentration 1.60E-08 M); 14.9208 and 11.551 and 11.6931 and 9.785 and 11.754 in the data set with MOLM-14 cells (drug concentration 2.00E-06 M); 76.8575 and 93.7881 and 76.4921 and 85.0995 and 82.1762 with MOLM-14 cells (drug concentration 3.20E-09 M); 53.106 and 44.4377 and 39.7686 and 41.149 and 48.4166 with MOLM-14 cells (drug concentration 4.00E-07 M); 89.9919 and 78.9687 and 69.3463 and 82.7852 and 87.4746 in the data set with MOLM-14 cells (drug concentration 6.40E-10 M). Further, the “Cell viability, MOML-14” value with MOLM-14 cells (drug concentration 8.00E-08 M) is 71.5794 and 85.3634 and 65.8344 and 81.7296 and 79.4965. The “Degradation at 200 nM (percentage of BTK degradation)” value on BTK came to 39%.

On to `CN(CCOCCOCCNC(=O)CNc1cccc2c1C(=O)N(C1CCC(=O)NC1=O)C2=O)C(C)(C)C=C(C#N)C(=O)N1CCC[C@@H](n2nc(-c3ccc(Oc4ccccc4)cc3)c3c(N)ncnc32)C1` (some centres unmarked) [RC-4], for which the “Cell viability, MOML-14” value in the data set on MOLM-14 cells (drug concentration 1.00E-05 M) was 7.995 and 4.587 and 6.948 and 0.6662 and 4.873; in the data set with MOLM-14 cells (drug concentration 1.60E-08 M) it was 106.917 and 98.9797 and 102.749 and 88.7772 and 88.111; in the data set on MOLM-14 cells (drug concentration 2.00E-06 M) it was 23.0509 and 25.7918 and 22.8415 and 19.1107 and 18.6919; with MOLM-14 cells (drug concentration 3.20E-09 M), 98.1803 and 95.5954 and 92.3367 and 95.7248 and 84.8751; in the data set with MOLM-14 cells (drug concentration 4.00E-07 M) it was 68.7719 and 62.8902 and 62.3953 and 62.1669 and 56.6088; in the data set on MOLM-14 cells (drug concentration 6.40E-10 M) it was 92.8506 and 90.1858 and 94.6399 and 97.7806 and 77.071. Further, the “Cell viability, MOML-14” value with MOLM-14 cells (drug concentration 8.00E-08 M) is 89.7861 and 80.8588 and 84.9703 and 89.1389 and 65.2315. Also, at BTK, the “Degradation at 200 nM (percentage of BTK degradation)” value was determined as 43%.

`CN(CCOCCOCCOCCNC(=O)CNc1cccc2c1C(=O)N(C1CCC(=O)NC1=O)C2=O)C(C)(C)C=C(C#N)C(=O)N1CCCC(n2nc(-c3ccc(Oc4ccccc4)cc3)c3c(N)ncnc32)C1` (centres unmarked) [RC-5]: the “Cell viability, MOML-14” value is 1.391 and 1.373 and 1.5492 and 0.5927 and 1.848 with MOLM-14 cells (drug concentration 1.00E-05 M); 74.2327 and 92.4124 and 92.4946 and 100.939 and 90.3468 in the data set with MOLM-14 cells (drug concentration 1.60E-08 M); 10.6332 and 11.0087 and 14.6588 and 13.2797 and 19.9049 in the data set on MOLM-14 cells (drug concentration 2.00E-06 M); 91.6026 and 96.0448 and 87.3775 and 99.3838 and 93.8853 in the data set on MOLM-14 cells (drug concentration 3.20E-09 M); 64.738 and 68.3352 and 96.2033 and 70.0311 and 76.4802 in the data set on MOLM-14 cells (drug concentration 4.00E-07 M); 101.496 and 98.8968 and 89.2553 and 98.5858 and 94.7773 in the data set with MOLM-14 cells (drug concentration 6.40E-10 M). Further, the “Cell viability, MOML-14” value in the data set with MOLM-14 cells (drug concentration 8.00E-08 M) is 91.7317 and 86.3095 and 87.3482 and 74.3794 and 93.7562. The “Degradation at 200 nM (percentage of BTK degradation)” value at BTK is given as 56%.
